Measured values taken from paper PMC7979765, “trans-Translation inhibitors bind to a novel site on the ribosome and clear Neisseria gonorrhoeae in vivo” (Nature Communications, 2021).
≈ marks a conversion by molar mass, not a printed value. Where two headings read alike, the source gives them in different places.

Key:
[1] = Liver microsome stability, murine; assay type: in vitro ADME, mouse
In short: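 Compounds incubated with liver microsomes plus NADPH over 30 min; parent remaining quantified by reverse-phase LC/MS. Half-life from linear regression over several time points.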

[2] = test system: Neisseria gonorrhoeae; experiment: MIC, microbroth dilution, G77L medium; assay type: cell-based
[3] = Aqueous solubility (nephelometric); assay type: physicochemical; conditions: aqueous solution (buffer not named); single replicates
[4] = test system: Pseudomonas aeruginosa; experiment: MIC, microbroth dilution; assay type: cell-based
[5] = Solubility (formulated); assay type: physicochemical
[6] = Serum protein binding, murine; assay type: in vitro ADME, mouse; conditions: mouse, serum, murine serum; read-out: murine serum binding (% bound)
Description: Serum protein binding was determined using an equilibrium dialysis method as described. The amount of compound in each chamber (buffer and serum) was measured using methods for reverse-phase liquid chromatography/mass spectroscopy methods that were customized for each compound.

With O=C(Nc1nnc(-c2ccc(F)cc2)o1)c1ccc(Cl)cc1 [KKL-35, 4-chloro-N-(5-(4-fluorophenyl)-1,3,4-oxadiazol-2-yl)benzamide] the “liver microsome stability (in words)” value [1] was “rapidly hydrolyzed”, the half-life ([1]; mouse, murine liver microsomes, read-out: MMS / Microsomal Stability (t1/2), murine) was less than 5 min and the “Average MLMS t½” value ([1]; murine liver microsomes, average of replicates) was less than 5 min. For the same compound, the “MLMS t½” value ([1]; murine liver microsomes, individual replicates) was less than 5 min, the MIC ([2]; Neisseria gonorrhoeae, ATCC49226, Neisseria gonorrhoeae ATCC 49226, source data, individual replicates, read-out: MIC) was 0.124 µg/mL (≈ 0.39 µM) and the MIC ([2]; Neisseria gonorrhoeae, ATCC49226, strain ATCC 49226, geomean of replicates, read-out: MIC GEOMEAN) was 0.124 µg/mL (≈ 0.39 µM). For the same compound, the MIC ([2]; Neisseria gonorrhoeae, ATCC49226, strain ATCC 49226, replicates 1-3, read-out: MIC) was 0.124 µg/mL (≈ 0.39 µM), the MIC ([2]; Neisseria gonorrhoeae, ATCC49226, strain ATCC 49226, type strain, read-out: MIC) was 0.12 µg/mL (≈ 0.378 µM) and the MIC ([2]; Neisseria gonorrhoeae, ATCC49226, strain MMX ATCC 49226, broth dilution by Micromyx, read-out: MIC) was 0.25 µg/mL (≈ 0.787 µM). It also gave an MIC ([2]; Neisseria gonorrhoeae, ATCC49226, strain MMX ATCC 49226, single data point, Micromyx, read-out: MIC) of 0.25 µg/mL (≈ 0.787 µM), an MIC ([2]; Neisseria gonorrhoeae, ATCC700719, strain ATCC 700719, SPT, read-out: MIC) of 0.25 µg/mL (≈ 0.787 µM) and an MIC ([2]; Neisseria gonorrhoeae, ATCC700719, strain ATCC 700719, geomean of replicates, read-out: MIC GEOMEAN) of 0.248 µg/mL (≈ 0.781 µM). It also gave an MIC ([2]; Neisseria gonorrhoeae, ATCC700719, strain ATCC 700719, replicates 1-3, read-out: MIC) of 0.248 µg/mL (≈ 0.781 µM), an MIC ([2]; Neisseria gonorrhoeae, ATCC700825, strain ATCC 700825, STR, read-out: MIC) of 0.06 µg/mL (≈ 0.189 µM) and an MIC ([2]; Neisseria gonorrhoeae, ATCC700825, strain ATCC 700825, geomean of replicates, read-out: MIC GEOMEAN) of 0.062 µg/mL (≈ 0.195 µM). The MIC ([2]; Neisseria gonorrhoeae, ATCC700825, strain ATCC 700825, replicates 1-3, read-out: MIC) was 0.062 µg/mL (≈ 0.195 µM), the MIC ([2]; Neisseria gonorrhoeae, BAA1846, strain BAA-1846, TET, read-out: MIC) was 0.06 µg/mL (≈ 0.189 µM) and the MIC ([2]; Neisseria gonorrhoeae, BAA1846, strain BAA-1846, geomean of replicates, read-out: MIC GEOMEAN) was 0.062 µg/mL (≈ 0.195 µM). For the same compound, the MIC ([2]; Neisseria gonorrhoeae, BAA1846, strain BAA-1846, replicates 1-3, read-out: MIC) was 0.062 µg/mL (≈ 0.195 µM), the MIC ([2]; Neisseria gonorrhoeae, strain H041, Fig. 1B, read-out: N. gonorrhoeae H041 MIC) was 0.12 µg/mL (≈ 0.378 µM) and the MIC ([2]; Neisseria gonorrhoeae, strain HO41, PEN, TET, CFM, CRO, LVX, read-out: MIC) was 0.25 µg/mL (≈ 0.787 µM). The MIC ([2]; Neisseria gonorrhoeae, strain HO41, geomean of replicates, read-out: MIC GEOMEAN) was 0.248 µg/mL (≈ 0.781 µM), the MIC ([2]; Neisseria gonorrhoeae, strain HO41, replicates 1-3, read-out: MIC) was 0.248 µg/mL (≈ 0.781 µM) and the MIC ([2]; Neisseria gonorrhoeae, strain MMX 6744, broth dilution by Micromyx, read-out: MIC) was 0.13 µg/mL (≈ 0.409 µM). For the same compound, the MIC ([2]; Neisseria gonorrhoeae, strain MMX 6744, single data point, Micromyx, read-out: MIC) was 0.13 µg/mL (≈ 0.409 µM), the MIC ([2]; Neisseria gonorrhoeae, strain MMX 6746, CIP, by Micromyx, read-out: MIC) was 0.13 µg/mL (≈ 0.409 µM) and the MIC ([2]; Neisseria gonorrhoeae, strain MMX 6746, single data point, Micromyx, read-out: MIC) was 0.13 µg/mL (≈ 0.409 µM). The MIC ([2]; Neisseria gonorrhoeae, strain MMX 6752, TET, by Micromyx, read-out: MIC) was 0.25 µg/mL (≈ 0.787 µM), the MIC ([2]; Neisseria gonorrhoeae, strain MMX 6752, single data point, Micromyx, read-out: MIC) was 0.25 µg/mL (≈ 0.787 µM) and the MIC ([2]; Neisseria gonorrhoeae, strain MMX 6753, by Micromyx, read-out: MIC) was 0.06 µg/mL (≈ 0.189 µM). It also gave an MIC ([2]; Neisseria gonorrhoeae, strain MMX 6753, single data point, Micromyx, read-out: MIC) of 0.06 µg/mL (≈ 0.189 µM), an MIC ([2]; Neisseria gonorrhoeae, strain MMX 6757, by Micromyx, read-out: MIC) of 0.06 µg/mL (≈ 0.189 µM) and an MIC ([2]; Neisseria gonorrhoeae, strain MMX 6757, single data point, Micromyx, read-out: MIC) of 0.06 µg/mL (≈ 0.189 µM). It also gave an MIC ([2]; Neisseria gonorrhoeae, strain MMX 6758, by Micromyx, read-out: MIC) of 0.13 µg/mL (≈ 0.409 µM), an MIC ([2]; Neisseria gonorrhoeae, strain MMX 6758, single data point, Micromyx, read-out: MIC) of 0.13 µg/mL (≈ 0.409 µM) and an MIC ([2]; Neisseria gonorrhoeae, strain MMX 6762, by Micromyx, read-out: MIC) of 0.13 µg/mL (≈ 0.409 µM). For the same compound, the MIC ([2]; Neisseria gonorrhoeae, strain MMX 6762, single data point, Micromyx, read-out: MIC) was 0.13 µg/mL (≈ 0.409 µM), the MIC ([2]; Neisseria gonorrhoeae, strain MMX 6767, by Micromyx, read-out: MIC) was 0.06 µg/mL (≈ 0.189 µM) and the MIC ([2]; Neisseria gonorrhoeae, strain MMX 6767, single data point, Micromyx, read-out: MIC) was 0.06 µg/mL (≈ 0.189 µM). It also gave an MIC ([2]; Neisseria gonorrhoeae, strain MMX 6771, TET, by Micromyx, read-out: MIC) of 0.06 µg/mL (≈ 0.189 µM), an MIC ([2]; Neisseria gonorrhoeae, strain MMX 6771, single data point, Micromyx, read-out: MIC) of 0.06 µg/mL (≈ 0.189 µM) and an MIC ([2]; Neisseria gonorrhoeae, strain MMX 6793, CIP, by Micromyx, read-out: MIC) of 0.06 µg/mL (≈ 0.189 µM). For the same compound, the MIC ([2]; Neisseria gonorrhoeae, strain MMX 6793, single data point, Micromyx, read-out: MIC) was 0.06 µg/mL (≈ 0.189 µM), the MIC ([2]; Neisseria gonorrhoeae, strain MMX 6797, CIP, TET, by Micromyx, read-out: MIC) was 0.06 µg/mL (≈ 0.189 µM) and the MIC ([2]; Neisseria gonorrhoeae, strain MMX 6797, single data point, Micromyx, read-out: MIC) was 0.06 µg/mL (≈ 0.189 µM). The MIC ([2]; Neisseria gonorrhoeae, strain MMX 6803, CIP, by Micromyx, read-out: MIC) was 0.13 µg/mL (≈ 0.409 µM), the MIC ([2]; Neisseria gonorrhoeae, strain MMX 6803, single data point, Micromyx, read-out: MIC) was 0.13 µg/mL (≈ 0.409 µM) and the MIC ([2]; Neisseria gonorrhoeae, strain MMX 6812, CIP, by Micromyx, read-out: MIC) was 0.13 µg/mL (≈ 0.409 µM). It also gave an MIC ([2]; Neisseria gonorrhoeae, strain MMX 6812, single data point, Micromyx, read-out: MIC) of 0.13 µg/mL (≈ 0.409 µM), an MIC ([2]; Neisseria gonorrhoeae, strain MMX 6818, CIP, by Micromyx, read-out: MIC) of 0.13 µg/mL (≈ 0.409 µM) and an MIC ([2]; Neisseria gonorrhoeae, strain MMX 6818, single data point, Micromyx, read-out: MIC) of 0.13 µg/mL (≈ 0.409 µM). The MIC ([2]; Neisseria gonorrhoeae, strain MMX 6819, CIP, by Micromyx, read-out: MIC) was 0.13 µg/mL (≈ 0.409 µM), the MIC ([2]; Neisseria gonorrhoeae, strain MMX 6819, single data point, Micromyx, read-out: MIC) was 0.13 µg/mL (≈ 0.409 µM) and the MIC ([2]; Neisseria gonorrhoeae, strain MMX 6879, by Micromyx, read-out: MIC) was 0.06 µg/mL (≈ 0.189 µM). For the same compound, the MIC ([2]; Neisseria gonorrhoeae, strain MMX 6879, single data point, Micromyx, read-out: MIC) was 0.06 µg/mL (≈ 0.189 µM), the MIC ([2]; Neisseria gonorrhoeae, strain MMX 6921, CIP, by Micromyx, read-out: MIC) was 0.25 µg/mL (≈ 0.787 µM) and the MIC ([2]; Neisseria gonorrhoeae, strain MMX 6921, single data point, Micromyx, read-out: MIC) was 0.25 µg/mL (≈ 0.787 µM). For the same compound, the MIC ([2]; Neisseria gonorrhoeae, strain MMX 6922, CIP, by Micromyx, read-out: MIC) was 0.25 µg/mL (≈ 0.787 µM), the MIC ([2]; Neisseria gonorrhoeae, strain MMX 6922, single data point, Micromyx, read-out: MIC) was 0.25 µg/mL (≈ 0.787 µM) and the MIC ([2]; Neisseria gonorrhoeae, strain MMX 6983, CIP, by Micromyx, read-out: MIC) was 0.25 µg/mL (≈ 0.787 µM). It also gave an MIC ([2]; Neisseria gonorrhoeae, strain MMX 6983, single data point, Micromyx, read-out: MIC) of 0.25 µg/mL (≈ 0.787 µM), an MIC ([2]; Neisseria gonorrhoeae, strain MMX 6989, by Micromyx, read-out: MIC) of 0.13 µg/mL (≈ 0.409 µM) and an MIC ([2]; Neisseria gonorrhoeae, strain MMX 6989, single data point, Micromyx, read-out: MIC) of 0.13 µg/mL (≈ 0.409 µM). The MIC ([2]; Neisseria gonorrhoeae, strain MMX 6990, CIP, by Micromyx, read-out: MIC) was 0.06 µg/mL (≈ 0.189 µM), the MIC ([2]; Neisseria gonorrhoeae, strain MMX 6990, single data point, Micromyx, read-out: MIC) was 0.06 µg/mL (≈ 0.189 µM) and the MIC ([2]; Neisseria gonorrhoeae, strain MMX 6992, by Micromyx, read-out: MIC) was 0.13 µg/mL (≈ 0.409 µM). The MIC ([2]; Neisseria gonorrhoeae, strain MMX 6992, single data point, Micromyx, read-out: MIC) was 0.13 µg/mL (≈ 0.409 µM), the MIC ([2]; Neisseria gonorrhoeae, strain MMX 6996, by Micromyx, read-out: MIC) was 0.13 µg/mL (≈ 0.409 µM) and the MIC ([2]; Neisseria gonorrhoeae, strain MMX 6996, single data point, Micromyx, read-out: MIC) was 0.13 µg/mL (≈ 0.409 µM). The MIC ([2]; Neisseria gonorrhoeae, strain MMX 6998, CIP, by Micromyx, read-out: MIC) was 0.25 µg/mL (≈ 0.787 µM), the MIC ([2]; Neisseria gonorrhoeae, strain MMX 6998, single data point, Micromyx, read-out: MIC) was 0.25 µg/mL (≈ 0.787 µM) and the MIC ([2]; Neisseria gonorrhoeae, strain MMX 7002, CIP, by Micromyx, read-out: MIC) was 0.13 µg/mL (≈ 0.409 µM). The MIC ([2]; Neisseria gonorrhoeae, strain MMX 7002, single data point, Micromyx, read-out: MIC) was 0.13 µg/mL (≈ 0.409 µM), the MIC ([2]; Neisseria gonorrhoeae, strain MMX 7005, by Micromyx, read-out: MIC) was 0.03 µg/mL (≈ 0.0944 µM) and the MIC ([2]; Neisseria gonorrhoeae, strain MMX 7005, single data point, Micromyx, read-out: MIC) was 0.03 µg/mL (≈ 0.0944 µM). It also gave an MIC90 ([2]; Neisseria gonorrhoeae, Supplementary Table 3, n = 32 (KKL-35), 71 (MBX-4132) strains, read-out: MIC90 (n)) of 0.25 µg/mL (≈ 0.787 µM), an MIC ([2]; strain ATCC 49226, replicates 1-3) of 0.124 µg/mL (≈ 0.39 µM) and an MIC ([2]; strain ATCC 700719, replicates 1-3) of 0.248 µg/mL (≈ 0.781 µM). It also gave an MIC ([2]; strain ATCC 700825, replicates 1-3) of 0.062 µg/mL (≈ 0.195 µM), an MIC ([2]; strain BAA-1846, replicates 1-3) of 0.062 µg/mL (≈ 0.195 µM) and an MIC ([2]; strain HO41, replicates 1-3) of 0.248 µg/mL (≈ 0.781 µM). It also gave a Solubility [3] of 6.3 µM (≈ 2 µg/mL), an MIC ([4]; Pseudomonas aeruginosa ATCC 27853, replicates) of no less than 32 µg/mL and an MIC ([4]; Pseudomonas aeruginosa, ATCC27853, Pseudomonas aeruginosa ATCC 27853, replicates, read-out: MIC) of no less than 32 µg/mL. The MIC ([4]; Pseudomonas aeruginosa, ATCC27853, strain ATCC 27853, read-out: MIC) was greater than 32 µg/mL, the Solubility [5] was 1000 µg/mL (≈ 3150 µM) and the fraction unbound [6] was less than 0.01.
